Patent US20100115832A1, “MOISTURIZING AGENT WITH NUTRIENTS” (priority 2006, published 2010)

Conditions: research at the DRiWATER lab

CC(=O)O [acetic acid]
effect on gel degradation in soil: will slow gel degradation in soil
